Laboratory results reported in patent publication US11903962B1, “Isoxazoline complexes and compositions thereof” (priority 2023, dated 2024).

Assays:
[1] = room temperature, various compositions; cited from earlier work
[2] = Water solubility of cyclodextrin complexes with or without polysorbate 80 / polypowder; type: physicochemical; details: aqueous with cosolvent or surfactant or cyclodextrin, complexed with hpbcd, read-out: solubility when complexed with hpbcd

solubility [2] [µg/mL]	Compound	degradation by water [1] [h]
–	Cc1cc(C2=NOC(c3cc(Cl)cc(Cl)c3)(C(F)(F)F)C2)ccc1C(=O)NCC(=O)NCC(F)(F)F (centres unmarked) [Fluralaner, 4-[5-(3,5-dichlorophenyl)-5-trifluoromethyl-4,5-dihydroisoxazol-3-yl]-2-methyl-N-[(2,2,2-trifluoro-ethylcarbamoyl)-methyl]-benzamide]	≤ 48
> 10000	O=C(NN1C(=O)[C@@H]2[C@@H]3C=C[C@@H]([C@H]4C[C@@H]34)[C@@H]2C1=O)c1ccc(C(F)(F)F)cc1 [tecovirimat]	–
